Assay results reported in patent US8148387B2, “AKT and P70 S6 kinase inhibitors” (Eli Lilly and Company, priority 2008, dated 2012).
Values joined by “and” are separate entries in the source; they are usually repeats but may differ in a detail not shown here. Identical values can stand only once.

Columns and labels:
H1155 [1] = assay: Cell Proliferation Assay (CellTiter-Glo), H1155; format: cell-based; settings: Homo sapiens, NCI-H1155; H1155, 72 hr
Procedure: (§1) The proliferation assay uses the CellTiter-Glo Luminescent Cell Viability Assay System (commercially available from Promega) to determine the cell number of viable cells in culture based on quantitation of the ATP present, which signals the presence of metabolically active cells.
(§2) The cells are plated in 96-well plate at 2000 cells/well in volume of 50 μL medium (DMEM, 10% FBS, 25 mM HEPES, 1.0 mM Sodium Pyruvate, and 0.1 mM Non Essential Amino Acids) except column 1 with medium only as blank control. The plates are incubated overnight at 37° C. and 5% CO2. On the next day, compound stocks are prepared at 40 mM in DMSO (500×) and serially diluted in DMSO in a 96-well round bottom polypropylene plate. Compounds are assayed at 10 concentrations in duplicate, 4 compounds per plate.
(§3) 4 μL of the serial DMSO dilutions are transferred to a 96 deep-well plate and 1 mL complete culture medium is added to create 2× stock for dosing. 50 μL of each 2× dosing stock is gently transferred to the corresponding well of the cell plate resulting in a 0.2% DMSO concentration and a 100 μL final volume. […] medium are added to the Control columns (Column 12) and background columns (Column 1). Cells are incubated with compound for at 37° C., 5% CO2 for 72 hr. […]

H1155 [2] = assay: Combination studies, fixed ratio method, cell proliferation, H1155; format: cell-based
Source text: (§4) The combination studies use the fixed ratio method, where the compound of the present invention and the other therapeutic agent are present in fixed ratios of concentrations corresponding to the IC50 equivalents of single agents. The readout for the combination studies is cell proliferation in respective cell lines using Cell Titer Glo reagents. Controls are processed similarly but without the compound of the present invention or the other therapeutic agent. Analysis of the data is done according to the method described in Zhao et. al., Clinical Cancer Research, 10, 7994-8004 (2004) utilizing a web based tool. A combination index is calculated for a range of cell proliferation inhibition activity levels according to the equation below. Combination Index at activity level x=[Concentration of other therapeutic agent in the combination at the activity level x/ICx of the other therapeutic agent]+[Concentration of the compound of the present invention in the combination at the activity level x/ICx of the compound of the present invention] For clarity, Combination index values at 50% inhibition are summarized below.

OPM-2 = assay: Cell Proliferation Assay (CellTiter-Glo), OPM-2; format: cell-based; settings: Homo sapiens; OPM-2, 72 hr
Procedure: as §1, §2, §3

A2780 [3] = assay: Combination studies, fixed ratio method, cell proliferation, A2780; format: cell-based
Source text: as §4

A2780 [4] = assay: Cell Proliferation Assay (CellTiter-Glo), A2780; format: cell-based; settings: Homo sapiens; A2780, 72 hr
Procedure: as §1, §2, §3

ACHN = assay: Combination studies, fixed ratio method, cell proliferation, ACHN; format: cell-based; settings: combination with Rapamycin
Source text: as §4

H69 = assay: Cell Proliferation Assay (CellTiter-Glo), H69; format: cell-based; settings: Homo sapiens, NCI-H69; H69, 72 hr
Procedure: as §1, §2, §3

PC3 = assay: Cell Proliferation Assay (CellTiter-Glo), PC3; format: cell-based; settings: Homo sapiens, PC-3; PC3, 72 hr
Procedure: as §1, §2, §3

HCT116 [5] = assay: Cell Proliferation Assay (CellTiter-Glo), HCT116; format: cell-based; settings: Homo sapiens, HCT-116; HCT116, 72 hr
Procedure: as §1, §2, §3

786-0 = assay: Combination studies, fixed ratio method, cell proliferation, 786-0; format: cell-based; settings: combination with Rapamycin
Source text: as §4

NCIH460 = assay: Combination studies, fixed ratio method, cell proliferation, NCIH460; format: cell-based
Source text: as §4

BT474 = assay: Cell Proliferation Assay (CellTiter-Glo), BT474; format: cell-based; settings: Homo sapiens, BT-474; BT474, 72 hr
Procedure: as §1, §2, §3

786-O = assay: Cell Proliferation Assay (CellTiter-Glo), 786-O; format: cell-based; settings: Homo sapiens, 786-0, 72 hr
Procedure: as §1, §2, §3

69AR = assay: Cell Proliferation Assay (CellTiter-Glo), 69AR; format: cell-based; settings: 72 hr
Procedure: as §1, §2, §3

U87MG = assay: Cell Proliferation Assay (CellTiter-Glo), U87MG; format: cell-based; settings: Homo sapiens, U-87 MG, 72 hr
Procedure: as §1, §2, §3

CAKI-1 = assay: Combination studies, fixed ratio method, cell proliferation, CAKI-1; format: cell-based; settings: combination with Rapamycin
Source text: as §4

HCT116 [6] = assay: Combination studies, fixed ratio method, cell proliferation, HCT116; format: cell-based
Source text: as §4

Calu6 = assay: Combination studies, fixed ratio method, cell proliferation, Calu6; format: cell-based
Source text: as §4

human HERG K+ channel = biological target: T1, human HERG K+ channel (Homo sapiens, UniProt Q12809); assay: HERG Assay, [3H]astemizole radioligand binding; settings: transfected HEK-293 cell membranes, 2 nM [3H]astemizole
T1 construct: expressed in transfected cells; host or cells: HEK-293
Procedure: Evaluation of the affinity of compounds for the human HERG K^+ channel in transfected HEK-293 cells is determined in a radioligand binding assay. Cell membrane homogenates (40 μg protein) are incubated for 75 min at 22° C. with 2 nM [^3H]astemizole in the absence or presence of the test compound in a buffer containing 50 mM Tris-HCl (pH 7.4), 10 mM KCl, 1.2 mM MgCl2 and 0.1% Bovine serum albumin (BSA). Nonspecific binding is determined in the presence of 10 μM astemizole. Following incubation, the samples are filtered rapidly under vacuum through glass fiber filters (GF/B, Packard) presoaked with 0.3% PEI and rinsed several times with ice-cold 50 mM Tris-HCl using a 96-sample cell harvester (Unifilter, Packard). The filters are dried then counted for radioactivity in a scintillation counter (Topcount, Packard) using a scintillation cocktail (Microscint 0, Packard). The results are expressed as a percent inhibition of the control radioligand specific binding. The standard reference compound is astemizole, which is tested in each experiment at several concentrations to obtain a competition curve from which its IC50 is calculated. (Finalayson et al, [^3H]dofetilide binding in SHSYSY and HEK293 cells expressing a HERG-like K^+ channels, Eur. J. Pharmacol., 412: 203 (2001)).

T1 sequence (Q12809 whole entry): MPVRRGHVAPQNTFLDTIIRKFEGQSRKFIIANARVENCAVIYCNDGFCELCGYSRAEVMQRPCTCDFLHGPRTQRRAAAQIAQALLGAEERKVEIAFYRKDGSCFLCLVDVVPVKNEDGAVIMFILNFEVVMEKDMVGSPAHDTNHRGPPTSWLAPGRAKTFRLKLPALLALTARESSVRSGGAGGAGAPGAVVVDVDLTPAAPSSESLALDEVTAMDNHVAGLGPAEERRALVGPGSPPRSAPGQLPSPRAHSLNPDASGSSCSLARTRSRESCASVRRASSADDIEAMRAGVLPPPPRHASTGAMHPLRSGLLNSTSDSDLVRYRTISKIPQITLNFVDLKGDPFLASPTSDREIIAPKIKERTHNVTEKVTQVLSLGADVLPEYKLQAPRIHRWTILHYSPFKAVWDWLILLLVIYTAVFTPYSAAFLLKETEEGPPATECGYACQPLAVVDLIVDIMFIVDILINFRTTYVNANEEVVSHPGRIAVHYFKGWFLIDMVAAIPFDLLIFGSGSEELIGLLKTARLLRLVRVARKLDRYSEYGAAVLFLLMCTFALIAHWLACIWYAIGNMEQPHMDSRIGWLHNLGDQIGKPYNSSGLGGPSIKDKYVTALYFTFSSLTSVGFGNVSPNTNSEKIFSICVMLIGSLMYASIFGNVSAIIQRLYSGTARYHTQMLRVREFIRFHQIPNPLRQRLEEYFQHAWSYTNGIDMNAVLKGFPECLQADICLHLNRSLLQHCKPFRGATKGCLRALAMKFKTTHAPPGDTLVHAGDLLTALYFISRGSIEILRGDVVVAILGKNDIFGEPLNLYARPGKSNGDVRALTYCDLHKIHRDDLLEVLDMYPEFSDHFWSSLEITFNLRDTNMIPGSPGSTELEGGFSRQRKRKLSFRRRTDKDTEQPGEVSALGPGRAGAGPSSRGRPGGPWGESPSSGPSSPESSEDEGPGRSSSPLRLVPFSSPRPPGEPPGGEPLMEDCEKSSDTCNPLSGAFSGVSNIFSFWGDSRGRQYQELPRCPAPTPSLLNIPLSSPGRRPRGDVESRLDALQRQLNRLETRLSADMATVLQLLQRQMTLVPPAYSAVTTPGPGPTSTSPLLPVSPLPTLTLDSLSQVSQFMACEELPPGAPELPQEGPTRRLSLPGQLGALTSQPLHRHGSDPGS

CN(C)CCn1cc(-c2ccc(F)c(C(F)(F)F)c2)nc1C1CCN(c2ncnc3c2CC(=O)N3)CC1 [Example 45, 4-{4-[1-(2-Dimethylamino-ethyl)-4-(4-fluoro-3-trifluoromethyl-phenyl)-1H-imidazol-2-yl]piperidin-1-yl}-5,7-dihydro-pyrrolo[2,3-d]-pyrimidin-6-one]
IC50 (H1155 [1]): 4.9 µM | COMBINATION INDEX AT 50% INHIBITION (H1155 [2]; combination with Cisplatin): 0.58 | COMBINATION INDEX AT 50% INHIBITION (H1155 [2]; combination with Erlotinib): 0.43 | COMBINATION INDEX AT 50% INHIBITION (H1155 [2]; combination with Gemcitabine): 0.87 | IC50 (OPM-2): 2.3 µM | COMBINATION INDEX AT 50% INHIBITION (A2780 [3]; combination with Cisplatin): 1.04 and 0.64 | COMBINATION INDEX AT 50% INHIBITION (A2780 [3]; combination with Doxorubicin•HCl): 0.65 and 0.96 | IC50 (A2780 [4]): 5.9 µM | COMBINATION INDEX AT 50% INHIBITION (ACHN): 0.12 | IC50 (H69): 6.3 µM | IC50 (PC3): 6.2 µM | IC50 (HCT116 [5]): 7.5 µM | COMBINATION INDEX AT 50% INHIBITION (786-0): 0.41 | COMBINATION INDEX AT 50% INHIBITION (NCIH460; combination with Cisplatin): 0.56 | COMBINATION INDEX AT 50% INHIBITION (NCIH460; combination with Docetaxel): 0.67 | COMBINATION INDEX AT 50% INHIBITION (NCIH460; combination with Erlotinib): 0.38 | COMBINATION INDEX AT 50% INHIBITION (NCIH460; combination with Gemcitabine): 0.86 | COMBINATION INDEX AT 50% INHIBITION (NCIH460; combination with Pemetrexed): 0.97 | IC50 (BT474): 7.9 µM | IC50 (786-O): 3.4 µM | IC50 (69AR): 9.4 µM | IC50 (U87MG): > 10 µM | COMBINATION INDEX AT 50% INHIBITION (CAKI-1): 0.33 | COMBINATION INDEX AT 50% INHIBITION (HCT116 [6]; combination with Cetuximab): 2.02 | COMBINATION INDEX AT 50% INHIBITION (HCT116 [6]; combination with Irinotecan): 0.82 | COMBINATION INDEX AT 50% INHIBITION (Calu6; combination with Cisplatin): 0.57 | COMBINATION INDEX AT 50% INHIBITION (Calu6; combination with Docetaxel): 0.94 | COMBINATION INDEX AT 50% INHIBITION (Calu6; combination with Erlotinib): 0.10 | COMBINATION INDEX AT 50% INHIBITION (Calu6; combination with Gemcitabine): 1.13 | COMBINATION INDEX AT 50% INHIBITION (Calu6; combination with Tasisulam): 1.19

O=C1Cc2c(ncnc2N2CCC(c3nc(-c4ccc(F)c(F)c4)cn3CCN3CCCC3)CC2)N1 [Example 37, 4-{4-[4-(3,4-Difluoro-phenyl)-1-(2-pyrrolidin-1-yl-ethyl)-1H-imidazol-2-yl]-piperidin-1-yl}-5,7-dihydro-pyrrolo[2,3-d]pyrimidin-6-one]
IC50 (human HERG K+ channel): 13.9 µM
